Tests used:
[1] = system: Female C57BL/6 mice; experiment: Test for hair growth promoting effect (hair regrowth on shaved back of mice, topical application); type: in vivo; settings: female C57BL/6 mice 6 to 7 weeks, hair-removed back, 100 µl (conc. 0.1% w/v) once a day for 30 days, visual approach; vehicle control 40
Method: Test Example: Test for hair growth promoting effect of cyclosporin derivatives of the invention
Female C57BL/6 mice of ages 6 to 7 weeks were utilized. After removing hairs on the middle of the back with an electric shaver, the mice were weighed and randomly assigned to the test groups with an even distribution of weights. The mice were given one day for adaptation. […] The results were determined by visual approach, in terms of degrees of hair regrowth. With respect to respective hair-removed areas, rates of new hair growth were examined and compared.

[2] = system: mouse's back; settings: comparative experiments on mouse's back, relative to minoxidil; cited from earlier work

Row | Compound | Area rate of hair regrowth (%) [1] [%] | hair regrowth effect, times superior to minoxidil [2]
1 | C/C=C/C[C@@H](C)[C@@H](O)[C@H]1C(=O)N[C@@H](CC)C(=O)N(C)[C@H](SCC)C(=O)N(C)[C@@H](CC(C)C)C(=O)N[C@@H](C(C)C)C(=O)N(C)[C@@H](CC(C)C)C(=O)N[C@@H](C)C(=O)N[C@H](C)C(=O)N(C)[C@@H](CC(C)C)C(=O)N(C)[C@@H](CC(C)C)C(=O)N(C)[C@@H](C(C)C)C(=O)N1C [Compound 1, [D-2-ethylthio-sar^3]cyclosporin A] | 90 | 
2 | C/C=C/C[C@@H](C)[C@@H](O)[C@H]1C(=O)N[C@@H](CC)C(=O)N(C)[C@H](SCCC)C(=O)N(C)[C@@H](CC(C)C)C(=O)N[C@@H](C(C)C)C(=O)N(C)[C@@H](CC(C)C)C(=O)N[C@@H](C)C(=O)N[C@H](C)C(=O)N(C)[C@@H](CC(C)C)C(=O)N(C)[C@@H](CC(C)C)C(=O)N(C)[C@@H](C(C)C)C(=O)N1C [Compound 2, [D-2-propylthio-sar^3] cyclosporin A] | 92 | 
3 | C/C=C/C[C@@H](C)[C@@H](O)[C@H]1C(=O)N[C@@H](CC)C(=O)N(C)[C@H](SC(C)C)C(=O)N(C)[C@@H](CC(C)C)C(=O)N[C@@H](C(C)C)C(=O)N(C)[C@@H](CC(C)C)C(=O)N[C@@H](C)C(=O)N[C@H](C)C(=O)N(C)[C@@H](CC(C)C)C(=O)N(C)[C@@H](CC(C)C)C(=O)N(C)[C@@H](C(C)C)C(=O)N1C [Compound 3, [D-2-isopropylthio-sarl^3] cyclosporin A] | 85 | 
4 | C=CCS[C@@H]1C(=O)N(C)[C@@H](CC(C)C)C(=O)N[C@@H](C(C)C)C(=O)N(C)[C@@H](CC(C)C)C(=O)N[C@@H](C)C(=O)N[C@H](C)C(=O)N(C)[C@@H](CC(C)C)C(=O)N(C)[C@@H](CC(C)C)C(=O)N(C)[C@@H](C(C)C)C(=O)N(C)[C@@H]([C@H](O)[C@H](C)C/C=C/C)C(=O)N[C@@H](CC)C(=O)N1C [Compound 4, [D-2-allylthio-sar^3] cyclosporin A] | 90 | 
5 | C/C=C/C[C@@H](C)[C@@H](O)[C@H]1C(=O)N[C@@H](CC)C(=O)N(C)[C@H](SCc2ccccc2)C(=O)N(C)[C@@H](CC(C)C)C(=O)N[C@@H](C(C)C)C(=O)N(C)[C@@H](CC(C)C)C(=O)N[C@@H](C)C(=O)N[C@H](C)C(=O)N(C)[C@@H](CC(C)C)C(=O)N(C)[C@@H](CC(C)C)C(=O)N(C)[C@@H](C(C)C)C(=O)N1C [Compound 5, [D-2-benzylthio-sar^3] cyclosporin A] | 90 | 
6 | C/C=C/C[C@@H](C)[C@@H](O)[C@H]1C(=O)N[C@@H](CC)C(=O)N(C)[C@H](Sc2ccc([N+](=O)[O-])cc2)C(=O)N(C)[C@@H](CC(C)C)C(=O)N[C@@H](C(C)C)C(=O)N(C)[C@@H](CC(C)C)C(=O)N[C@@H](C)C(=O)N[C@H](C)C(=O)N(C)[C@@H](CC(C)C)C(=O)N(C)[C@@H](CC(C)C)C(=O)N(C)[C@@H](C(C)C)C(=O)N1C [Compound 6, [D-2-(4-nitrophenyl)thio-sar^3] cyclosporin A] | 89 | 
7 | [D-2-(dimethylthiocarbamyl)dithio-sar^3] cyclosporin A [Compound 7] | 85 | 
8 | cyclosporin |  | about 100 times
